Reference: publication PMC5484485, “In vitro and in vivo effects of kisspeptin antagonists p234, p271, p354, and p356 on GPR54 activation” (PLoS ONE, 2017)
Square brackets hold non-standard residues; d marks the D form. Ends that are not written are not given here.

Experiments:
plasma LH concentration = test: Plasma LH in anestrous Beagle bitches during antagonist infusion and after cKP10 bolus; type: in vivo, dog; settings: n = 6
From the text: Thirteen adult anestrous Beagle bitches were used for this study. Six dogs with a median age of 89 months (range 43–122 months) were used as control group, receiving cKP10 without an antagonist. Eight dogs with a median age of 52 months (range 31–116 months) were used for the antagonist experiments. One dog was first used in the control group and 12 months later for the antagonist experiments. Of the eight dogs used for the antagonist experiments, four received p271, p354, and p356. In two of the eight dogs both p354 and p356 were tested, while in the remaining two dogs only p271 was tested, in order to test every antagonist in 6 dogs. The time between testing of different kisspeptin antagonists was at least 5 days (range 5–15 days) to ensure that there were no peptide residues. Kisspeptin antagonist p234 per se was not tested in vivo because p271 is in fact p234 with a penetratin tag to enhance passage across the blood-brain barrier, as has been described for use with peripheral administration.
Kisspeptin antagonists (50 μg/kg/h) were administered continuously for three hours via a catheter in the cephalic vein. Two hours after the start of the infusion, a single bolus of cKP10 (0.5 μg/kg) was administered intravenously. Blood samples were collected from the jugular vein by venipuncture at -40 min and 0 min before the antagonist infusion, and then every 30 min for two hours. After the administration of cKP10, blood samples were collected at 10, 20, 40, and 60 min (i.e., 130, 140, 160, and 180 min after the start of the antagonist infusion).
As a control, KP stimulation tests (without the administration of a kisspeptin antagonist) were performed in six dogs. Blood samples were collected from the jugular vein by venipuncture at -40 min and 0 min before, and then at 10, 20, 40, and 60 min after administration of cKP10 (0.5 μg/kg). Plasma LH concentrations were measured in all blood samples.
Plasma LH concentrations were measured with a heterologous radioimmunoassay validated for the dog, as described previously. The intra- and interassay CVs for values above 0.5 μg/l were 2.3 and 10.5%, respectively, and the limit of quantitation was 0.3 μg/l.
In both groups of dogs (experimental and control), the basal plasma LH concentration was calculated for each dog as the mean of the values at –40 and 0 min before cKP10 or antagonist administration. All LH values that exceeded the mean of all basal samples plus 3 SD were attributed to pulsatile secretion and were treated as outliers and excluded from statistical analysis. Log transformation of plasma LH concentrations was used because data were not normally distributed. A linear mixed model was used to analyze differences in plasma LH concentrations before and after KP10, with or without a kisspeptin antagonist (group effects: p271, p354, p356, and controls), with Bonferroni correction. P<0.05 was considered significant.

human GPR54 = human GPR54 (Homo sapiens, UniProt Q969F8); test: Flow cytometric calcium flux assay, response to peptide alone (agonist / intrinsic activity); type: cell-based; design: host or cells: rat hematopoietic CHEM1 cells expressing endogenous Galpha15; settings: any tested concentration, 10^-13 to 10^-5 M; n = 3
Description: In vitro analyses of the effects of kisspeptin and kisspeptin antagonists, were performed using HT[…] cells (rat hematopoietic CHEM1 cells expressing endogenous Gα15 and, stably expressing the human GPR54 receptor (Millipore BV, the Netherlands), CHEM1-GPR54. Cells were counted and suspended in HBSS+++ at a concentration of 5*10^6 cells/ml. To load the cells with the fluorescent dye ester they were incubated in HBSS+++ adjusted to a concentration of 2 μM Fluo-3 AM (Molecular Probes, Life Technologies, the Netherlands) for 1h at 37°C under agitation in the dark. After incubation, the cells were washed by adding HBSS+++ to a volume of 10 ml followed by centrifugation (5 min, 150 x g) to remove excess of Fluo-3AM. […] Thereafter the tube was removed briefly and 25 μl peptide (see below) was added, after which aspiration and analysis continued. For statistical analyses fluorescent data recorded during the time interval 30-60 seconds after initiation of measurement were used. […] Experiments were performed 3 times. Representative flow cytometry results are depicted in Fig 1. […] We then assessed whether these antagonists could compete with KP10 for its receptor. […] For this purpose 25 μl quantities of the antagonists were added to 200 μl of Fluo-3 AM labelled cells (10^6 cells/ml) and incubated for 15 min. […] Peptides p354 and p356 were tested three times with both human and canine KP10; while peptides p234 and p271 were tested three times with human KP10 and once with canine KP10. […] A multivariate general linear model was set up to analyze differences in calcium response between the different concentrations, with Dunnett's test as a post hoc procedure for the antagonists and Bonferroni's test for the agonists.

[1] = antagonist 50 μg/kg/h iv, cKP10 0.5 μg/kg iv

Sequence of human GPR54 (Q969F8 whole entry): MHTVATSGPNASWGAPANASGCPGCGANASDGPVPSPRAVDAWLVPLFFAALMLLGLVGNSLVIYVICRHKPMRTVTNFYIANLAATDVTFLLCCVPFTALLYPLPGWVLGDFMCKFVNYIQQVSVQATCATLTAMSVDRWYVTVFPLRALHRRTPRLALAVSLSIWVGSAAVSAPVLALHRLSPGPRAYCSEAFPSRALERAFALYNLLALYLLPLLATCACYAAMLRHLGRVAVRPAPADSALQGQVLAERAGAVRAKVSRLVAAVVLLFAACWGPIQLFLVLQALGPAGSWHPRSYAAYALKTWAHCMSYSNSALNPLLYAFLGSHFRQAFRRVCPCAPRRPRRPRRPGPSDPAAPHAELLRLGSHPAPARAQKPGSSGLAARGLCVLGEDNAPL

RRMKWKKY[dA]NWNGFG[dW]RF-NH2 [p271, p234 with a penetratin tag]
Median (and range) plasma LH, t = 30 (plasma LH concentration; 30 min of antagonist infusion 50 μg/kg/h iv): 3.9 (2.2–5.4) μg/L | Median (and range) plasma LH, t = 60 (plasma LH concentration; 60 min of antagonist infusion 50 μg/kg/h iv): 5.2 (2.5–10.0) μg/L | Median (and range) plasma LH, t = 90 (plasma LH concentration; 90 min of antagonist infusion 50 μg/kg/h iv): 4.5 (2.8–6.3) μg/L | Median (and range) plasma LH, t = 120 (plasma LH concentration; 120 min of antagonist infusion 50 μg/kg/h iv, before cKP10): 6.0 (3.2–7.5) μg/L | median maximum increment in plasma LH concentration after cKP10 during antagonist administration (plasma LH concentration; [1]): 12.2 µg/L | range of maximum increment in plasma LH concentration after cKP10 during antagonist administration (plasma LH concentration; [1]): 4.7 to 18.2 µg/L | Median (and range) plasma LH, t = 130 / t = 10* (plasma LH concentration; antagonist infusion 50 μg/kg/h iv, 10 min after cKP10 0.5 μg/kg iv): 16.2 (9.3–24.1) μg/L | Median (and range) plasma LH, t = 140 / t = 20* (plasma LH concentration; antagonist infusion 50 μg/kg/h iv, 20 min after cKP10 0.5 μg/kg iv): 10.0 (5.7–12.6) μg/L | Median (and range) plasma LH, t = 160 / t = 40* (plasma LH concentration; antagonist infusion 50 μg/kg/h iv, 40 min after cKP10 0.5 μg/kg iv): 6.4 (4.8–8.8) μg/L | Median (and range) plasma LH, t = 180 / t = 60* (plasma LH concentration; antagonist infusion 50 μg/kg/h iv, 60 min after cKP10 0.5 μg/kg iv): 4.8 (3.5–7.3) μg/L | Median (and range) plasma LH, Basal (plasma LH concentration; before antagonist infusion (mean of -40 and 0 min per dog)): 4.0 (2.9–5.9) μg/L | effect on basal plasma LH concentration (plasma LH concentration; continuous iv 50 μg/kg/h, anestrous bitches): did not cause significant alterations | intrinsic calcium response (human GPR54): no significant intrinsic calcium response
